Source: article doi:10.1101/2025.07.01.662609v1, “BtuJ1, a novel surface-exposed B12-binding protein in Bacteroidetes, functions as an extracellular vitamin reservoir that enhances fitness” (biorxiv, 2025)

Biological target: T1, BtuJ1 (BT1491) (Bacteroides thetaiotaomicron, UniProt Q8A7N3)
T1 construct: gene BT_1491; mature part without lipid anchor residue (signal peptide cleaved between 21 and 22); His-tagged, pET28 NcoI/XhoI, E. coli BL21(DE3); modelled from Met29
T1 sequence (Q8A7N3 23-256): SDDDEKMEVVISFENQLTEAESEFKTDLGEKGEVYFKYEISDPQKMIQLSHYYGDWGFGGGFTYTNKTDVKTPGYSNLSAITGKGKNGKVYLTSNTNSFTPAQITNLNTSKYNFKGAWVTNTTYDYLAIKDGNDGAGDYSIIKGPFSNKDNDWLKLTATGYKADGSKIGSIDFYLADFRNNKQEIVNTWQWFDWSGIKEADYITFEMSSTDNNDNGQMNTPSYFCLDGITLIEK
Assay: binding shown in supplementary figure, method not stated in main text
Conditions: AdoCbl added at 1:2 protein:corrinoid, then SEC in 10 mM Hepes, 100 mM NaCl, pH 7.5

C/C1=C2/[N-][C@H]([C@H](CC(N)=O)[C@@]2(C)CCC(=O)NC[C@@H](C)OP(=O)([O-])O[C@H]2C(O)[C@@H](n3cnc4cc(C)c(C)cc43)O[C@@H]2CO)[C@]2(C)N=C(/C(C)=C3N=C(/C=C4N=C1[C@@H](CCC(N)=O)C\4(C)C)[C@@H](CCC(N)=O)[C@]\3(C)CC(N)=O)[C@@H](CCC(N)=O)[C@]2(C)CC(N)=O.[CH2-][C@H]1O[C@@H](n2cnc3c(N)ncnc32)[C@H](O)[C@@H]1O.[Co+3] (stereo partly shown) [AdoCbl, adenosylcobalamin]
binding shown in supplementary figure, method not stated in main text: BtuJ1 also binds adenosylcobalamin, which has a bulkier upper ligand compared to other cobalamins
